Measured values: publication PMC10299909, “Structural basis of efficacy-driven ligand selectivity at GPCRs” (Nature Chemical Biology, 2023)
Positions count from the first letter of the chain named.

Tests used:
[1] = target: T1, M3 mAChR (Homo sapiens, UniProt P20309); assay: whole-cell [3H]NMS radioligand competition binding, CHO FlpIn cells; details: first set of experiments, read-out: pKI (radioligand binding competition with [3H]NMS) (converted)
T1 construct: expressed in transfected cells; host or cells: CHO FlpIn
T1 sequence (P20309 whole entry): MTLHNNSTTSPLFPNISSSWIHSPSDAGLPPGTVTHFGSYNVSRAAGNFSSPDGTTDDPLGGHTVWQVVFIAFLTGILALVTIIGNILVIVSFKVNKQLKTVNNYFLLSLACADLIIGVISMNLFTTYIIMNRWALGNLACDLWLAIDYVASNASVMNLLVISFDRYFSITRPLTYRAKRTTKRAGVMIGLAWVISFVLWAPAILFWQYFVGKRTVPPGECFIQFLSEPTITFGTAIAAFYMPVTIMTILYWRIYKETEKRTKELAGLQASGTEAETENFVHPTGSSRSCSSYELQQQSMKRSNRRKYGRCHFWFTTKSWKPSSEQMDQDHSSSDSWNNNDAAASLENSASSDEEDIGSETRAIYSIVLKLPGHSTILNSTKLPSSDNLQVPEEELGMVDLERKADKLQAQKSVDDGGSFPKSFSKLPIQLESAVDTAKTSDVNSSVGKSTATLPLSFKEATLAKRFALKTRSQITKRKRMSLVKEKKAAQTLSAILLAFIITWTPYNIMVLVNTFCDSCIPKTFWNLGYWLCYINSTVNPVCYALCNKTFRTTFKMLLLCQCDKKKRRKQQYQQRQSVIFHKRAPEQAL

[2] = target: T2, M4 mAChR (Homo sapiens, UniProt P08173); assay: as above; details: read-out: Affinities M2 M4: binding normalised to Buffer only-TB = 100
T2 construct: expressed in transfected cells; host or cells: CHO FlpIn
T2 sequence (P08173 1-479): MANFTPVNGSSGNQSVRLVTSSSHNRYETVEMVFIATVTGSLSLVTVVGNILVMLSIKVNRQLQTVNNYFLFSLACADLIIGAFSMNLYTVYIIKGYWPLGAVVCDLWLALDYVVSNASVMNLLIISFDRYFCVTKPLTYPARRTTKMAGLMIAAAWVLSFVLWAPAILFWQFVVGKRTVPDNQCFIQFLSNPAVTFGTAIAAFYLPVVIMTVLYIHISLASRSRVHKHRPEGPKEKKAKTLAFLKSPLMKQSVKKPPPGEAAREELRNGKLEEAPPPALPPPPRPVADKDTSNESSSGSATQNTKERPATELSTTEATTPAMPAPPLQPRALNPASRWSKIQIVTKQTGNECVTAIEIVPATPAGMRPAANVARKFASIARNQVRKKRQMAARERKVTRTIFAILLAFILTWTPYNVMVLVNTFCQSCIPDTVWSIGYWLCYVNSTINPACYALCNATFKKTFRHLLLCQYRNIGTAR

[3] = target: T1, M3 mAChR; assay: pERK1/pERK2 signaling assay (AlphaScreen SureFire), CHO FlpIn cells; assay type: cell-based
[4] = target: T2, M4 mAChR; assay: as above; assay type: cell-based
[5] = target: T3, M5 mAChR (Homo sapiens, UniProt P08912); assay: as above; assay type: cell-based; details: first set of experiments
T3 construct: expressed in transfected cells; host or cells: CHO FlpIn
T3 sequence (P08912 1-532): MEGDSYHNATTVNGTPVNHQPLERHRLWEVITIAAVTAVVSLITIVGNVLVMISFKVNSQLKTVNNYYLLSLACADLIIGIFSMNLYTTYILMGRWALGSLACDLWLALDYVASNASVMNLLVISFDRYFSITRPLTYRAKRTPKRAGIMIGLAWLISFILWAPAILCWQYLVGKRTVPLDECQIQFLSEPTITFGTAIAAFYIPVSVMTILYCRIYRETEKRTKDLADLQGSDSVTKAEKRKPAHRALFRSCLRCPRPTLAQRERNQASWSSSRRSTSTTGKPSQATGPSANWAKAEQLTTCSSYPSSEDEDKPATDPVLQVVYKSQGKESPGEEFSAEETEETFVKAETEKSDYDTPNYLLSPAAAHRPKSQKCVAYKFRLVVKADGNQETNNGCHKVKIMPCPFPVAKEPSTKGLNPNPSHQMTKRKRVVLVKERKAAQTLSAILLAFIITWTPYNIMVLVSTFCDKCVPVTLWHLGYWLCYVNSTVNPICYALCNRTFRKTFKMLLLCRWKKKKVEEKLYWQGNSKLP

[6] = target: T4, M4 L190F mAChR (Homo sapiens, UniProt P08173, L190F); assay: as above; assay type: cell-based; details: M4(L190F); second set of experiments
T4 construct: expressed in transfected cells; host or cells: CHO FlpIn
T4 sequence (P08173 1-479 L190F): T2 sequence (P08173 1-479) with L190F

[7] = target: T5, M2 WT mAChR (Homo sapiens, UniProt P08172); assay: BRET TRUPATH GoA activation (G-protein dissociation) assay; assay type: cell-based; details: M2 WT; T=[…]
T5 construct: expressed in transfected cells; host or cells: CHO FlpIn
T5 sequence (P08172 1-466): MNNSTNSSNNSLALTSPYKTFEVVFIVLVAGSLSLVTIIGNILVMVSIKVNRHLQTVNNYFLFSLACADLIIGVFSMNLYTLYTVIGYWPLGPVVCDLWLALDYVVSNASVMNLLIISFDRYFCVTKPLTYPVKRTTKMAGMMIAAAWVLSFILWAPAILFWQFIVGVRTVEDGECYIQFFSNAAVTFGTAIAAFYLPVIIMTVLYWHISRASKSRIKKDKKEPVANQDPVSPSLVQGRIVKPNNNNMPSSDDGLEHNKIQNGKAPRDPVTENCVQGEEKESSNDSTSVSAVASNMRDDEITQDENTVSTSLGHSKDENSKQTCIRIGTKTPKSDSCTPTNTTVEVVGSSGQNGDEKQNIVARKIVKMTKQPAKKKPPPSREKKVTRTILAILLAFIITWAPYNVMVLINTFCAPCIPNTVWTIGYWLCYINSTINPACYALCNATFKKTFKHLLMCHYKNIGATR
Description: (§1) Cells were seeded at 20,000 cells per well into 96-well flat-bottom white culture plates and grown for 4 h. Plasmid DNA (20 ng per well of Gα, Gβ and Gγ at a 1:1:1 ratio) and linear polyethylenimine were added to the cells in a 1:6 ratio. To allow for protein expression, cells were then incubated (37 °C, 5% CO2) for 48 h before the measurement of agonist activity. […] The initial 4 min of measurement was considered baseline counts before ligand or vehicle addition, with BRET readings every 2 min for a further 8 min following drug or vehicle addition.
(§2) Concentration–response curves were fitted to a three-parameter logistic equation to derive ligand potency (pEC50) estimates.
(§3) Data was analyzed using the operational model of agonism to quantify the efficacy (Logτ) of each agonist in each cell line, and subsequently corrected for receptor expression level differences between cell lines (Logτc), using the M2 WT as reference. […] Source data

[8] = target: T4, M4 L190F mAChR; assay: as above; assay type: cell-based; details: T=[…]
Description: as §1, §2, §3

[9] = target: T6, M4 WT mAChR (Homo sapiens, UniProt P08173); assay: as above; assay type: cell-based; details: T=[…]
T6 construct: expressed in transfected cells; host or cells: CHO FlpIn
T6 sequence (P08173 1-479): T2 sequence (P08173 1-479)

[10] = target: T7, M2 mAChR (Homo sapiens, UniProt P08172); assay: whole-cell [3H]NMS radioligand competition binding, CHO FlpIn cells
T7 sequence (P08172 1-466): T5 sequence (P08172 1-466)

Compound CCCCCCOc1nsnc1C1=CCCN(C)C1 [Xanomeline, xanomeline] has a Ki [1] of 0.1 µM, a remaining binding at 10 µM ([2]; M4, Log[Ligand] (M) -5, individual experiments) of 1.95% and a remaining binding at 1 µM ([2]; M4, Log[Ligand] (M) -6, individual experiments) of 18.6%. The remaining binding at 0.1 µM ([2]; M4, Log[Ligand] (M) -7, individual experiments) was 88%, the remaining binding at 0.001 µM ([2]; M4, Log[Ligand] (M) -9, individual experiments) was 105% and the “Emax pERK1/2” value [3] was 62 ± 6 % FBS stimulation. For the same compound, the EC50 ([3]; M3, first set of experiments, read-out: pEC50 pERK1/2 (converted)) was 0.117 µM, the “Emax pERK1/2” value ([4]; first set of experiments (top 5 rows)) was 92 ± 4 % FBS stimulation and the “Emax pERK1/2” value ([4]; second set of experiments (bottom 4 rows)) was 101 ± 3 % FBS stimulation. The “Emax pERK1/2” value [5] was 80 ± 8 % FBS stimulation, the “Emax pERK1/2” value [6] was 90 ± 8 % FBS stimulation and the “Log(Tau) corrected for receptor expression (Logτc), GoA activation” value (“Log(Tau) corrected” for short) [7] was -0.65. The “Log(Tau) corrected” value [8] was -0.36, the activation at 1000 µM ([8]; […], Log[Ligand] (M) -3, individual experiments, read-out: GoA activation response) was 3.92% and the activation at 10 µM ([8]; […], Log[Ligand] (M) -5, individual experiments, read-out: GoA activation response) was 49%. The “Log(Tau) corrected” value [9] was 0.38, the remaining binding at 0.1 µM ([10]; read-out: Affinities M2 M4: binding normalised to Buffer only-TB = 100, M2, Log[Ligand] (M) -7, individual experiments) was 83.3% and the remaining binding at 0.01 µM ([10]; read-out: Affinities M2 M4: binding normalised to Buffer only-TB = 100, M2, Log[Ligand] (M) -8, individual experiments) was 90.2%. The remaining binding at 0.0001 µM ([10]; read-out: Affinities M2 M4: binding normalised to Buffer only-TB = 100, M2, Log[Ligand] (M) -10, individual experiments) was 101%.
